# Measured values as given in patent publication US7919504B2, “Thiadiazole modulators of PKB” (Amgen Inc., priority 2007, dated 2011).
# Counter-ions that a name gives are not always drawn.
# Target: T1, PKBα (Homo sapiens, UniProt P31749)
# T1 construct: the full length PKBα and a kinase domain of PKBα with pleckstrin domain (amino acids 1-117) deleted
# Experiment: PKB kinase assay (P33-labeled ATP, synthetic peptide substrate, filter plate capture)
# Format: biochemical
# Settings: with respect to PKBα
# Source text: The kinase assay for evaluating PKB activity comprises active PKB enzymes, a PKB specific substrate, and P^33-labeled ATP. Two form of PKBα enzymes were used, the full length PKBα and a kinase domain of PKBα with pleckstrin domain (amino acids 1-117) deleted. Both PKB enzymes were obtained from Upstate cell signaling solutions (Cat. #14-276 and 14-341). The PKB substrate used is a synthetic peptide (ARKRERTYSFGHHA (SEQ ID NO: 1)) as described in Obata et al., J. Biol. Chem. 275 (46), 36108-36115 (2000). The phosphorylated substrate was captured by a phosphocellulose membrane filter plate (MILLIPORE) and measured by a Wallac Microbeta liquid scintillation counter (Perkin Elmer). Table 1 provides the IC50 values obtained for each of the examples with respect to PKBα.
# T1 sequence (P31749 118-480 limits assumed): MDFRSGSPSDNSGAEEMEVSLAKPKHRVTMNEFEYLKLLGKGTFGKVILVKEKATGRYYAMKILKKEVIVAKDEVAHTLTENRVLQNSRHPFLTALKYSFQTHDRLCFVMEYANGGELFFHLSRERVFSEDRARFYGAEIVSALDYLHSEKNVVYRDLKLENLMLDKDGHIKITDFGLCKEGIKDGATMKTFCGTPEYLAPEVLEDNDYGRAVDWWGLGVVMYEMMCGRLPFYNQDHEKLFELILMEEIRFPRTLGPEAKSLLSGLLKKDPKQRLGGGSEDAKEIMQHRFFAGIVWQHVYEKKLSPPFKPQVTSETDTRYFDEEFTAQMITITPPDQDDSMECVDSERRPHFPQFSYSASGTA
row,SMILES,IC50 [nM]
1,"N[C@H](CCc1nnc(-c2ccc3cnccc3c2)s1)Cc1ccc(C(F)(F)F)cc1 [Example 35, (2R)-4-(5-(Isoquinolin-6-yl)-1,3,4-thiadiazol-2-yl)-1-(4-(trifluoromethyl)phenyl)butan-2-amine]",< 50
2,"N[C@H](CNc1nnc(-c2ccc3cnsc3c2)s1)Cc1ccc(C(F)(F)F)cc1 [Example 42, N-((S)-2-Amino-3-(4-(trifluoromethyl)phenyl)propyl)-5-(benzo[d]isothiazol-6-yl)-1,3,4-thiadiazol-2-amine]",< 50
3,"N[C@H](CNc1nnc(-c2ccc3cnc(F)cc3c2)s1)Cc1ccc(C(F)(F)F)cc1 [Example 43, N-((S)-2-Amino-3-(4-(trifluoromethyl)phenyl)propyl)-5-(3-fluoroisoquinolin-6-yl)-1,3,4-thiadiazol-2-amine trifluoroacetate]",< 50
4,"N[C@H](CNc1nnc(-c2ccc3cnc(F)cc3c2)s1)Cc1ccc(C(F)(F)F)nc1 [Example 44, N-((S)-2-Amino-3-(6-(trifluoromethyl)pyridin-3-yl)propyl)-5-(3-fluoroisoquinolin-6-yl)-1,3,4-thiadiazol-2-amine trifluoroacetate]",< 50
5,"N[C@H](CCc1nnc(-c2ccc3cnc(F)cc3c2)s1)Cc1ccc(C(F)(F)F)nc1 [Example 45, (2R)-4-(5-(3-Fluoroisoquinolin-6-yl)-1,3,4-thiadiazol-2-yl)-1-(6-(trifluoromethyl)pyridin-3-yl)butan-2-amine]",< 50
6,"N[C@H](CCc1nnc(-c2ccc3[nH]ncc3c2)s1)Cc1ccc(C(F)(F)F)nc1 [Example 46, (2R)-4-(5-(1H-Indazol-5-yl)-1,3,4-thiadiazol-2-yl)-1-(6-(trifluoromethyl)pyridin-3-yl)butan-2-amine]",< 50
7,"N[C@H](CCc1nnc(-c2ccc3c(c2)CC(=O)N3)s1)Cc1ccc(C(F)(F)F)nc1 [Example 47, 5-(5-((R)-3-Amino-4-(6-(trifluoromethyl)pyridin-3-yl)butyl)-1,3,4-thiadiazol-2-yl)indolin-2-one trifluoroacetate]",50 to 1000
8,"N[C@H](CCc1nnc(-c2ccc3cnc(F)cc3c2)s1)Cc1ccc(C(F)(F)F)cc1 [Example 48, (2R)-4-(5-(3-Fluoroisoquinolin-6-yl)-1,3,4-thiadiazol-2-yl)-1-(4-(trifluoromethyl)phenyl)butan-2-amine]",< 50
9,"N[C@H](CCc1nnc(-c2ccc3[nH]c(=O)oc3c2)s1)Cc1ccc(C(F)(F)F)cc1 [Example 49, 6-(5-((R)-3-Amino-4-(4-(trifluoromethyl)phenyl)butyl)-1,3,4-thiadiazol-2-yl)benzo[d]oxazol-2(3H)-one]",< 50
10,"N[C@H](CNc1nnc(-c2ccc3[nH]c(=O)oc3c2)s1)Cc1ccc(Cl)cc1 [Example 50, 6-(5-((S)-2-Amino-3-(4-chlorophenyl)propylamino)-1,3,4-thiadiazol-2-yl)benzo[d]oxazol-2(3H)-one]",< 50
11,"N[C@H](CNc1nnc(-c2ccc3c(c2)CC(=O)N3)s1)[C@@H](O)c1ccc(C(F)(F)F)cc1 [Example 51, 5-(5-((2R,3S)-2-Amino-3-hydroxy-3-(4-(trifluoromethyl)phenyl)propylamino)-1,3,4-thiadiazol-2-yl)indolin-2-one trifluoroacetate]",< 50
